Assay results published in patent US12351828B2, “Method for constructing hepatic progenitor cell-like cell bank, cell lines prepared therefrom and application thereof” (SHANGHAI CELLIVER BIOTECHNOLOGY CO., LTD., priority 2019, dated 2025).

What was measured:
Assay in all cases: Erlotinib-specific hepatotoxicity, in vitro three-dimensional hepatocyte model, PrestoBlue cell viability
Format in all cases: cell-based, human
[1] = test system: fifth hepatocyte model line; conditions: co-cultured 48 hours, 0.24-250 μMol/L, FIG. 6e
Source text: (§1) The in vitro three-dimensional hepatocyte model is constructed by using the hepatic progenitor cell-like cell bank. The method for constructing the in vitro three-dimensional hepatocyte model is stated in the “Expansion and Differentiation of Human Hepatocyte-derived Liver Progenitor-like Cells and Their Use for the Study of Hepatotropic Pathogens” published in Volume 29, Issue 1, 2018, Cell Research, and is not repeated here. In the process of constructing the in vitro three-dimensional hepatocyte model, a first hepatocyte model line, a second hepatocyte model line, a third hepatocyte model line, a fourth hepatocyte model line, a fifth hepatocyte model line and a sixth hepatocyte model line are obtained by the first immortal hepatic progenitor cell-like cell line, the second immortal hepatic progenitor cell-like cell line, the third immortal hepatic progenitor cell-like cell line, the fourth immortal hepatic progenitor cell-like cell line, the fifth immortal hepatic progenitor cell-like cell line and the sixth immortal hepatic progenitor cell-like cell line, respectively.
(§2) In the embodiment of the present invention, the specific toxic drug Erlotinib is used to characterize the specific hepatotoxicity of the in vitro three-dimensional hepatocyte model.
(§3) Preparing a Erlotinib solutions with concentrations of 250 μMol/L, 62.5 μMol/L, 15.625 μMol/L, 3.9 μMol/L, 0.97 μMol/L, 0.24 μMol/L by dimethyl sulfoxide (DMSO), and using DMSO as a blank reference.
(§4) Each hepatocyte model line in the in vitro three-dimensional hepatocyte model is co-cultured with different concentrations of Erlotinib aqueous solution for 48 hours.
(§5) After the co-culture is completed, the PrestoBlue™ cell viability testing reagent produced by Life Technologies is used to characterize the Erlotinib-specific hepatotoxicity in each culture obtained after the co-culture, respectively. The specific methods for the co-culture and the characterization of the Erlotinib-specific hepatotoxicity are common methods known by those skilled in the art and will not be repeated here.

[2] = test system: first hepatocyte model line; conditions: co-cultured 48 hours, 0.24-250 μMol/L, FIG. 6a
Source text: as §1, §2, §3, §4, §5

[3] = test system: fourth hepatocyte model line; conditions: co-cultured 48 hours, 0.24-250 μMol/L, FIG. 6d
Source text: as §1, §2, §3, §4, §5

[4] = test system: second hepatocyte model line; conditions: co-cultured 48 hours, 0.24-250 μMol/L, FIG. 6b
Source text: as §1, §2, §3, §4, §5

[5] = test system: sixth hepatocyte model line; conditions: co-cultured 48 hours, 0.24-250 μMol/L, FIG. 6f
Source text: as §1, §2, §3, §4, §5

[6] = test system: third hepatocyte model line; conditions: co-cultured 48 hours, 0.24-250 μMol/L, FIG. 6c
Source text: as §1, §2, §3, §4, §5

## C#Cc1cccc(Nc2ncnc3cc(OCCOC)c(OCCOC)cc23)c1 [Erlotinib]
[1]
  cell viability with the increase in the concentration of Erlotinib solution: basically does not significant changed
[2]
  cell viability with the increase in the concentration of Erlotinib solution: basically does not significant changed
[3]
  cell viability with the increase in the concentration of Erlotinib solution: significant downward trend
[4]
  cell viability with the increase in the concentration of Erlotinib solution: basically does not significant changed
[5]
  cell viability with the increase in the concentration of Erlotinib solution: basically does not significant changed
[6]
  cell viability with the increase in the concentration of Erlotinib solution: significant downward trend
